Source: patent US12655106B2 (Eikonizo Therapeutics, Inc., priority 2021, dated 2026)

Experiments:
Full length Human HDAC8 = target: T1, Full length Human HDAC8 (Homo sapiens, UniProt Q9BY41); test: Caliper endpoint assay for HDAC enzymatic activity (HDAC8); type: biochemical; settings: in vitro enzymatic, 30 min pre-incubation, 1 μM substrate peptide
T1 construct: Full length Human HDAC8; HIS (N); host or cells: baculovirus expression system
T1 sequence (Q9BY41 1-377): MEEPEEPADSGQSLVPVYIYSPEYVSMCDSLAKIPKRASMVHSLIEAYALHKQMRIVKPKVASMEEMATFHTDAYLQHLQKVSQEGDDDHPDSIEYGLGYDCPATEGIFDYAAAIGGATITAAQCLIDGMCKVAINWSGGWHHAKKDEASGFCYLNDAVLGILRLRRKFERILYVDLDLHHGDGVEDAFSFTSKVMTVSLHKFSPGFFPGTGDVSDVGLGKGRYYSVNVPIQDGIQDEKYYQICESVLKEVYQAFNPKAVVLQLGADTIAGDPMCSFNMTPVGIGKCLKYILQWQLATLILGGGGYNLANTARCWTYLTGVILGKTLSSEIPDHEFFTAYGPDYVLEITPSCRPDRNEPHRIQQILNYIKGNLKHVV

Full length Human HDAC6 = target: T2, Full length Human HDAC6 (Homo sapiens, UniProt Q9UBN7); test: Caliper endpoint assay for HDAC enzymatic activity (HDAC6); type: biochemical; settings: for IC50: in vitro enzymatic, Caliper endpoint assay, 30 min pre-incubation, 1 μM substrate peptide; for Selectivity (6 v 8): ratio of HDAC8 IC50/HDAC6 IC50
T2 construct: Full length Human HDAC6; FLAG (C); host or cells: baculovirus expression system
T2 sequence (Q9UBN7 1-1215): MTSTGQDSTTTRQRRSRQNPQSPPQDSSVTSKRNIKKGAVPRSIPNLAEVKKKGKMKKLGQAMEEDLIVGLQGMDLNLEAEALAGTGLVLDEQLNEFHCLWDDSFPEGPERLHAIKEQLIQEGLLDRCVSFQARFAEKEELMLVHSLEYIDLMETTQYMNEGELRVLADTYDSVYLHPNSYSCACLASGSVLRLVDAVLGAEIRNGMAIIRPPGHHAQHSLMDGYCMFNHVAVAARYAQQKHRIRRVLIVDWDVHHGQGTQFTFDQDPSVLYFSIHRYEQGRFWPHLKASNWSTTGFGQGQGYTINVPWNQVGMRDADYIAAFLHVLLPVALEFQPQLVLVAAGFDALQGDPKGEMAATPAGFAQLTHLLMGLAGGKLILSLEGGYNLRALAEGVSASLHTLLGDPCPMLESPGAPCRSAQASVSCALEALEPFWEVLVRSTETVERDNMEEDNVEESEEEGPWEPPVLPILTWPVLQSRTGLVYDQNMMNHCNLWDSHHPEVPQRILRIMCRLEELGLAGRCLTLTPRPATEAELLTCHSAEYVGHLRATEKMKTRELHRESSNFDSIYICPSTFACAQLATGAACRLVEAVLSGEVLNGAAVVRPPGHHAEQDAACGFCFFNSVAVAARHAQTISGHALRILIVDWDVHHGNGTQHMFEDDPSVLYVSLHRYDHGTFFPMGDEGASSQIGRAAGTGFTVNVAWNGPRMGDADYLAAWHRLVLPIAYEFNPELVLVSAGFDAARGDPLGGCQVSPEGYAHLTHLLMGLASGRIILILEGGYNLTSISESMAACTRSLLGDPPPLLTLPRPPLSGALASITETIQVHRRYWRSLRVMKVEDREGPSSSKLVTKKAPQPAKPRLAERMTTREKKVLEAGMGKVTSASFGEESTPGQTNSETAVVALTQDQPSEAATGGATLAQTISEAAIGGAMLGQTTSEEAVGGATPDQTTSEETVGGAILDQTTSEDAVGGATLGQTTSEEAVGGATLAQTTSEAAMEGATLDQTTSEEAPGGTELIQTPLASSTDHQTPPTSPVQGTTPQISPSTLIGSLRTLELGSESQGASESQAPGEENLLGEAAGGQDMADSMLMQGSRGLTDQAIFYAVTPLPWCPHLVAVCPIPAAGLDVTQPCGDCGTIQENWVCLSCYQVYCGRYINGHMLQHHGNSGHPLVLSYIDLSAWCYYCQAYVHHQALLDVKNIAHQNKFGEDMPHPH

SMILES | IC50 (Full length Human HDAC8) [nM] | IC50 (Full length Human HDAC6) [nM] | Selectivity (6 v 8) (Full length Human HDAC6)
CC(=O)N1CC[C@@H](N2CCc3cc(C(=O)NO)cc(F)c3C2)CC12CCC2 (single isomer, unassigned) [Compound 442] | 10000 to 100000 | 1 to 100 | IV (IV: >100-1000)
O=C(NO)c1cc(F)c2c(c1)CCN([C@H]1CCN(Cc3ccccc3)C3(CCC3)C1)C2 (single isomer, unassigned) [Compound 443] | 10000 to 100000 | 1 to 100 | IV (IV: >100-1000)
O=C(NO)c1cc(F)c2c(c1)CCN([C@@H]1CCN(Cc3ccccc3)C3(CCC3)C1)C2 (single isomer, unassigned) [Compound 444] | 10000 to 100000 | 1 to 100 | IV (IV: >100-1000)
O=C(NO)c1cc(F)c2c(c1)CCN([C@H]1CCOC3(CCC3)C1)C2 (single isomer, unassigned) [Compound 445] | 10000 to 100000 | 1 to 100 | IV (IV: >100-1000)
O=C(NO)c1cc(F)c2c(c1)CCN(C1CCOC3(CCC3)C1)C2 (single isomer, unassigned) [Compound 446] | 10000 to 100000 | 1 to 100 | V (V: >1000)
O=C(NO)c1cc(F)c2c(c1)CCN([C@@H]1CCOC3(C1)CN(C1CC1)C3)C2 (single isomer, unassigned) [Compound 449] | 10000 to 100000 | 1000 to 10000 | III (III: >10-100)
CN1CC2(C[C@@H](N3CCc4cc(C(=O)NO)cc(F)c4C3)CCO2)C1 (single isomer, unassigned) [Compound 451] | 1000 to 10000 | 1 to 100 | IV (IV: >100-1000)
CN1CC2(C[C@H](N3CCc4cc(C(=O)NO)cc(F)c4C3)CCO2)C1 (single isomer, unassigned) [Compound 452] | 10000 to 100000 | 100 to 1000 | III (III: >10-100)
CC(=O)N1CC2(C[C@H](N3CCc4cc(C(=O)NO)cc(F)c4C3)CCO2)C1 (single isomer, unassigned) [Compound 453] | 10000 to 100000 | 1 to 100 | IV (IV: >100-1000)
CC(=O)N1CC2(C[C@@H](N3CCc4cc(C(=O)NO)cc(F)c4C3)CCO2)C1 (single isomer, unassigned) [Compound 454] | 10000 to 100000 | 1 to 100 | IV (IV: >100-1000)
CN1[C@@H]2CC[C@H]1CC(CN1CCc3cc(C(=O)NO)cc(F)c3C1)C2 (single isomer, unassigned) [Compound 482] | 1000 to 10000 | 1 to 100 | IV (IV: >100-1000)
CN1[C@@H]2CC[C@H]1CC(CN1CCc3cc(C(=O)NO)cc(F)c3C1)C2 (single isomer, unassigned) [Compound 483] | 1000 to 10000 | 1 to 100 | IV (IV: >100-1000)
CC[C@@H]1Cc2c(F)cc(C(=O)NO)cc2CN1CC12CC3CC(CC(C3)C1)C2 (single isomer, unassigned) [Compound 507] | 1000 to 10000 | 100 to 1000 | III (III: >10-100)
CC[C@H]1Cc2c(F)cc(C(=O)NO)cc2CN1CC12CC3CC(CC(C3)C1)C2 (single isomer, unassigned) [Compound 508] | 1000 to 10000 | 1 to 100 | III (III: >10-100)
CC[C@@H]1Cc2c(F)cc(C(=O)NO)cc2CN1CC12CC3CC(CC(C3)O1)C2 (single isomer, unassigned) [Compound 509] | 1000 to 10000 | 1 to 100 | III (III: >10-100)
CC[C@H]1Cc2c(F)cc(C(=O)NO)cc2CN1CC12CC3CC(CC(C3)O1)C2 (single isomer, unassigned) [Compound 510] | 1000 to 10000 | 1 to 100 | IV (IV: >100-1000)

SMILES | IC50 (Full length Human HDAC8) [nM] | IC50 (Full length Human HDAC6) [nM] | Selectivity (6 v 8) (Full length Human HDAC6)
CC[C@@H]1Cc2c(F)cc(C(=O)NO)cc2CN1CC1CCCCC1 (single isomer, unassigned) [Compound 517] | 1000 to 10000 | 1 to 100 | III (III: >10-100)
CC[C@H]1Cc2c(F)cc(C(=O)NO)cc2CN1CC1CCCCC1 (single isomer, unassigned) [Compound 518] | 1000 to 10000 | 1 to 100 | IV (IV: >100-1000)
CC[C@@H]1Cc2c(F)cc(C(=O)NO)cc2CN1CC1CC2(CCCCC2)C1 (single isomer, unassigned) [Compound 521] | 100 to 1000 | 1 to 100 | III (III: >10-100)
CC[C@H]1Cc2c(F)cc(C(=O)NO)cc2CN1CC1CC2(CCCCC2)C1 (single isomer, unassigned) [Compound 522] | 100 to 1000 | 1 to 100 | III (III: >10-100)
CC[C@H]1Cc2c(F)cc(C(=O)NO)cc2CN1CC12CC(NC)(C1)C2 (single isomer, unassigned) [Compound 523] | 10000 to 100000 | 1 to 100 | IV (IV: >100-1000)
CC[C@@H]1Cc2c(F)cc(C(=O)NO)cc2CN1CC12CC(NC)(C1)C2 (single isomer, unassigned) [Compound 524] | 1000 to 10000 | 1 to 100 | III (III: >10-100)
CC[C@H]1Cc2c(F)cc(C(=O)NO)cc2CN1CC12CC(NC(C)=O)(C1)C2 (single isomer, unassigned) [Compound 525] | 1000 to 10000 | 1 to 100 | III (III: >10-100)
CC[C@@H]1Cc2c(F)cc(C(=O)NO)cc2CN1CC1CCC2(CCC2)CC1 (single isomer, unassigned) [Compound 527] | 1000 to 10000 | 1 to 100 | III (III: >10-100)
CC[C@H]1Cc2c(F)cc(C(=O)NO)cc2CN1CC1CCC2(CCC2)CC1 (single isomer, unassigned) [Compound 528] | 1000 to 10000 | 1 to 100 | III (III: >10-100)
CC[C@H]1Cc2c(F)cc(C(=O)NO)cc2CN1CC1C2CNCC1C2 (single isomer, unassigned) [Compound 529] | 10000 to 100000 | 1 to 100 | IV (IV: >100-1000)
CC[C@@H]1Cc2c(F)cc(C(=O)NO)cc2CN1CC1C2CC1CN(C)C2 (single isomer, unassigned) [Compound 530] | 10000 to 100000 | 100 to 1000 | III (III: >10-100)
CC[C@H]1Cc2c(F)cc(C(=O)NO)cc2CN1CC1C2CC1CN(C)C2 (single isomer, unassigned) [Compound 531] | > 100000 | 1 to 100 | V (V: >1000)
CC[C@@H]1Cc2c(F)cc(C(=O)NO)cc2CN1CC12CC(C1)N(C)C2 (single isomer, unassigned) [Compound 534] | 10000 to 100000 | 100 to 1000 | IV (IV: >100-1000)
CC[C@H]1Cc2c(F)cc(C(=O)NO)cc2CN1CC12CC(C1)N(C)C2 (single isomer, unassigned) [Compound 535] | 1000 to 10000 | 1 to 100 | IV (IV: >100-1000)
CC[C@H]1Cc2c(F)cc(C(=O)NO)cc2CN1C[C@]12CN[C@H](CO1)C2 (single isomer, unassigned) [Compound 549] | 10000 to 100000 | 1 to 100 | IV (IV: >100-1000)
CC[C@H]1Cc2c(F)cc(C(=O)NO)cc2CN1C[C@]12C[C@H](CO1)N(C)C2 (single isomer, unassigned) [Compound 552] | 10000 to 100000 | 1 to 100 | IV (IV: >100-1000)
